This note sets out measurements from ChEMBL document CHEMBL4680348, “1,2,4-Thiadiazole acyclic nucleoside phosphonates as inhibitors of cysteine dependent enzymes cathepsin K and GSK-3β” (Bioorg Med Chem, 2021).

Data set [1] concerns the target T1, Cathepsin K (Homo sapiens) (UniProt P43235).
T1 sequence (whole entry): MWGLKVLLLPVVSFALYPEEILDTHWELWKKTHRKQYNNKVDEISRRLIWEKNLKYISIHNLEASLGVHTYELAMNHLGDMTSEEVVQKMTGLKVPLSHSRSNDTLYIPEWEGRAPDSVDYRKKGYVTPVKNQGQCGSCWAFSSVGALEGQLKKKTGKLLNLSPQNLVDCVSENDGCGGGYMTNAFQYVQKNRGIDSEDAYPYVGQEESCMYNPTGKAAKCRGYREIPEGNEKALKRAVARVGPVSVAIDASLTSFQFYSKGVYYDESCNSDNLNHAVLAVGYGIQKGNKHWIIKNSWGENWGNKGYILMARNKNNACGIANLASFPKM
The data set can be described thus: Inhibition of recombinant human Cathepsin K expressed in Pichia pastoris X-33 assessed as residual activity at 10 uM using Z-Gly-Pro-Arg-AMC as substrate preincubated for 10 mins followed by substrate addition measured after 30 mins by fluorescence based microplate reader assay. Particulars: time 40.0 min.

Data set [2] deals with CCRF-CEM. The data set can be described thus: Cytotoxicity against human CCRF-CEM cells assessed as cell viability at 10 uM incubated for 72 hrs by CellTiter-Glo luminescence based assay. It counts as functional. The note with it: read-out: Activity.
The subject of data set [3] is CCRF-CEM. The data set can be described thus: Cytotoxicity against human CCRF-CEM cells assessed as cell viability at 100 uM incubated for 72 hrs by CellTiter-Glo luminescence based assay. It counts as functional. The note with it: read-out: Activity.
The test system of data set [4] is HL-60. Put plainly: Cytotoxicity against human HL-60 cells assessed as cell viability at 10 uM incubated for 72 hrs by CellTiter-Glo luminescence based assay. Particulars: read-out: Activity. It counts as functional.
Data set [5] deals with HL-60. Put plainly: Cytotoxicity against human HL-60 cells assessed as cell viability at 100 uM incubated for 72 hrs by CellTiter-Glo luminescence based assay. It counts as functional. Particulars: read-out: Activity.
For data set [6], the system named is HeLa S3. Put plainly: Cytotoxicity against human HeLa S3 cells assessed as cell viability at 10 uM incubated for 72 hrs by CellTiter-Glo luminescence based assay. Particulars: read-out: Activity. It counts as functional.
The test system of data set [7] is HeLa S3. Put plainly: Cytotoxicity against human HeLa S3 cells assessed as cell viability at 100 uM incubated for 72 hrs by CellTiter-Glo luminescence based assay. It counts as functional. Particulars: read-out: Activity.
Data set [8] has as its system HepG2. The data set can be described thus: Cytotoxicity against human HepG2 cells assessed as cell viability at 10 uM incubated for 72 hrs by CellTiter-Glo luminescence based assay. The data set is classed as functional. The note with it: read-out: Activity.
Data set [9] deals with HepG2. The data set can be described thus: Cytotoxicity against human HepG2 cells assessed as cell viability at 100 uM incubated for 72 hrs by CellTiter-Glo luminescence based assay. The data set is classed as functional. The note with it: read-out: Activity.
Data set [10] concerns SH-SY5Y. Put plainly: Cytotoxicity against human SH-SY5Y cells assessed as cell viability at 10 uM incubated for 72 hrs by CellTiter-Glo luminescence based assay. It counts as functional. Particulars: read-out: Activity.
Data set [11] concerns SH-SY5Y. Put plainly: Cytotoxicity against human SH-SY5Y cells assessed as cell viability at 100 uM incubated for 72 hrs by CellTiter-Glo luminescence based assay. Particulars: read-out: Activity. It counts as functional.
The nature of data set [12]: Cytotoxicity against human NHDF cells assessed as cell viability at 10 uM incubated for 72 hrs by CellTiter-Glo luminescence based assay. The note with it: read-out: Activity.
Data set [13] is described as follows: Cytotoxicity against human NHDF cells assessed as cell viability at 100 uM incubated for 72 hrs by CellTiter-Glo luminescence based assay. Particulars: read-out: Activity.
Data set [14] addresses Glycogen synthase kinase-3 beta (Homo sapiens, UniProt P49841). The data set can be described thus: Inhibition of human recombinant GSK3beta using GSK3 peptide as substrate preincubated for 15 mins followed by ATP addition and measured after 90 mins by ADP-Glo kinase assay.

Sequence of Glycogen synthase kinase-3 beta (P49841 whole entry): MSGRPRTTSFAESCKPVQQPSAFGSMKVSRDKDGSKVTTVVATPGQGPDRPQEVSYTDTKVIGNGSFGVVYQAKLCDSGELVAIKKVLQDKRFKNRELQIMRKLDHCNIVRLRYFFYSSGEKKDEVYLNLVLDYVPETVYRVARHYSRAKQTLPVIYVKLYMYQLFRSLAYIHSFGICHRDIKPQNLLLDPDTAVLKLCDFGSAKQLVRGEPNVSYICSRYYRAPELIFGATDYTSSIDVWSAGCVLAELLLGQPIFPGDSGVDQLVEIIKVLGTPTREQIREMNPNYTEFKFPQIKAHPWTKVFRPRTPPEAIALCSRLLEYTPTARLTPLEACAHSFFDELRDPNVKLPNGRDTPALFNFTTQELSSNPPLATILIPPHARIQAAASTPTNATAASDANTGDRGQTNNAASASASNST

As to `CC(C)OP(=O)(COCCn1sc(NC(=O)c2ccccc2)nc1=O)OC(C)C`, the Activity in data set [1] amounted to 80.6%. Besides, the viability at 10 µM was found to be 100% in data set [2]; 104% in data set [4]; 101% in data set [6]; 103% in data set [8]; 104% in [10]. The viability at 100 µM in data set [3] came out at 94%; in data set [5] it was 115%; in [7] it was 100%; in [9], 101%; in data set [11], 101%. For the same compound, in data set [12], the viability at 72 h, 10 µM was 103%. Further, the viability at 72 h, 100 µM in data set [13] worked out at 101%. In data set [14], the IC50 was more than 10 µM.

Consider `O=C(Nc1nc(=O)n(C[C@@H](CO)OCP(=O)(O)O)s1)OCC1c2ccccc2-c2ccccc21`, for which, in [1], the Activity is 85.5%. The viability at 10 µM in data set [2] stood at 88%; in data set [4], 93%; in data set [6], 98%; in data set [8] it was 106%; in data set [10] it was 99%. Moreover, the viability at 100 µM in data set [3] was found to be 119%; in data set [5], 100%; in [7] it was 99%; in [9], 88%; in [11] it was 93%. In addition, in [12], the viability at 72 h, 10 µM was 98%. Besides, the viability at 72 h, 100 µM in data set [13] is 95%. The IC50 in [14] is more than 10 µM.

Turning to `Cc1cnc(-c2cnc(NCCNc3ccc(C#N)cn3)nc2-c2ccc(Cl)cc2Cl)[nH]1` [LADUVIGLUSIB], the viability at 10 µM in [2] amounted to 28%; in data set [4] it was 119%; in data set [6], 67%; in [8], 86%; in data set [10], 77%. Also, the viability at 72 h, 10 µM in data set [12] amounted to 53%.

Regarding `CC(C)OP(=O)(CO[C@H](CO)Cn1sc(NC(=O)c2ccccc2)nc1=O)OC(C)C`, in data set [1], the Activity is 92.9%. Moreover, the viability at 10 µM in data set [2] turned out to be 86%; in data set [4], 106%; in data set [6], 97%; in data set [8] it was 109%; in [10], 100%. Also, the viability at 100 µM in data set [3] was found to be 97%; in data set [5], 118%; in [7] it was 105%; in [9] it was 99%; in data set [11], 97%. Besides, the viability at 72 h, 10 µM in data set [12] was found to be 103%. Further, the viability at 72 h, 100 µM in [13] stood at 104%. The concentration for half-maximal inhibition (IC50) in [14] is more than 10 µM.

`CC(=O)Nc1nc(=O)[nH]s1`: the Activity in data set [1] was determined as 76.6%. Besides, the viability at 10 µM in data set [2] came out at 104%; in [4], 105%; in [6] it was 97%; in data set [8], 103%; in [10], 102%. In addition, the viability at 100 µM in data set [3] turned out to be 102%; in data set [5], 108%; in data set [7], 102%; in data set [9], 88%; in data set [11] it was 99%. In data set [12], the viability at 72 h, 10 µM was found to be 99%. In addition, the viability at 72 h, 100 µM in data set [13] amounted to 105%. The half-maximal inhibitory concentration (IC50) in data set [14] was more than 10 µM.

With `CN(C)/C=N/c1nc(=O)[nH]s1`, the Activity in data set [1] is 67%. Moreover, the viability at 10 µM in data set [2] is 122%; in data set [4], 102%; in data set [6], 97%; in data set [8] it was 97%; in data set [10], 100%. In addition, the viability at 100 µM is 84% in [3]; 105% in data set [5]; 112% in data set [7]; 85% in data set [9]; 75% in data set [11]. Moreover, the viability at 72 h, 10 µM in data set [12] is 105%. In addition, the viability at 72 h, 100 µM in data set [13] is 107%. The IC50 in [14] was more than 10 µM.

With `CCOC(=O)Nc1nc(=O)n(C[C@@H](CO)OCP(=O)(OC(C)C)OC(C)C)s1`, the Activity in data set [1] came out at 83.4%. For the same compound, the viability at 10 µM worked out at 67% in data set [2]; 97% in data set [4]; 90% in data set [6]; 101% in [8]; 104% in data set [10]. Besides, the viability at 100 µM in data set [3] stood at 45%; in [5], 101%; in [7], 87%; in data set [9], 93%; in data set [11] it was 104%. In addition, the viability at 72 h, 10 µM in data set [12] was found to be 104%. The viability at 72 h, 100 µM in data set [13] stood at 100%. Also, the IC50 in data set [14] is more than 10 µM.

For `O=C(Nc1nc(=O)n(CCOCP(=O)(O)O)s1)OCC1c2ccccc2-c2ccccc21`, the Activity in data set [1] is 67%. Moreover, the viability at 10 µM turned out to be 85% in data set [2]; 102% in [4]; 97% in data set [6]; 105% in data set [8]; 102% in [10]. In addition, the viability at 100 µM in data set [3] amounted to 90%; in data set [5] it was 106%; in data set [7], 102%; in data set [9], 103%; in data set [11], 99%. Further, the viability at 72 h, 10 µM in data set [12] came to 93%. The viability at 72 h, 100 µM in [13] is 84%. The IC50 in data set [14] is more than 10 µM.

Consider `CCOC(=O)Nc1nc(=O)n(C[C@@H](CO)OCP(=O)(O)O)s1`, for which the Activity in data set [1] was determined as 97.5%. For the same compound, the viability at 10 µM was 94% in data set [2]; 95% in [4]; 97% in data set [6]; 99% in data set [8]; 100% in data set [10]. The viability at 100 µM in [3] is 114%; in data set [5], 99%; in data set [7], 94%; in [9] it was 89%; in [11] it was 99%. In addition, the viability at 72 h, 10 µM in data set [12] came out at 101%. For the same compound, in data set [13], the viability at 72 h, 100 µM worked out at 99%. For the same compound, the IC50 in data set [14] was more than 10 µM.

For the compound `O=C(Nc1nc(=O)n(CCOCP(=O)(O)O)s1)c1ccccc1`, the Activity in data set [1] was found to be 90.3%. Also, the viability at 10 µM in data set [2] is 98%; in [4], 102%; in data set [6] it was 101%; in data set [8], 100%; in [10] it was 104%. For the same compound, the viability at 100 µM in data set [3] was found to be 100%; in data set [5] it was 113%; in [7] it was 101%; in data set [9], 100%; in data set [11], 105%. Moreover, the viability at 72 h, 10 µM in data set [12] was 103%. Further, the viability at 72 h, 100 µM in data set [13] stood at 102%. The IC50 in data set [14] was more than 10 µM.

In the case of `Nc1nc(OCCOCP(=O)(O)O)ns1`, the Activity in data set [1] turned out to be 90%. The viability at 10 µM was determined as 113% in data set [2]; 103% in data set [4]; 101% in [6]; 97% in data set [8]; 101% in data set [10]. The viability at 100 µM in [3] turned out to be 112%; in data set [5] it was 100%; in data set [7] it was 102%; in data set [9] it was 93%; in data set [11] it was 99%. In data set [12], the viability at 72 h, 10 µM stood at 105%. Besides, the viability at 72 h, 100 µM in data set [13] came out at 96%. Also, in data set [14], the IC50 is more than 10 µM.

Take `CCOC(=O)Nc1nc(=O)n(CCOCP(=O)(OC(C)C)OC(C)C)s1`: the Activity in data set [1] turned out to be 86.8%. The viability at 10 µM in data set [2] stood at 92%; in [4] it was 102%; in data set [6] it was 100%; in data set [8] it was 104%; in data set [10], 105%. Further, the viability at 100 µM in data set [3] was 98%; in [5], 111%; in data set [7] it was 101%; in data set [9] it was 100%; in data set [11] it was 104%. Moreover, the viability at 72 h, 10 µM in data set [12] is 101%. In addition, in data set [13], the viability at 72 h, 100 µM came out at 98%. In addition, the half-maximal inhibitory concentration (IC50) in data set [14] is more than 10 µM.

`O=c1sn(-c2cccc3ccccc23)c(=O)n1Cc1ccccc1` [TIDEGLUSIB]: the viability at 10 µM in data set [2] stood at 30%; in data set [4], 34%; in [6] it was 69%; in data set [8], 92%; in [10] it was 80%. For the same compound, the viability at 72 h, 10 µM in data set [12] is 57%.
